In ChEMBL document CHEMBL4177616, “Potent anti-melanogenic activity and favorable toxicity profile of selected 4-phenyl hydroxycoumarins in the zebrafish model and the computational molecular modeling studies” (Bioorg Med Chem, 2017):
Calls of active or inactive are those of the source. No cut-off for these calls is given here.

How the values were obtained:
Tyrosinase (Danio rerio) = target: T1, Tyrosinase (Danio rerio) (UniProt A0A8M1PAD4); assay: Inhibition of zebrafish embryo tyrosinase assessed as melanin production at 50 ug/ml after 48 hrs relative to control; values are per cent of control
T1 sequence (whole entry): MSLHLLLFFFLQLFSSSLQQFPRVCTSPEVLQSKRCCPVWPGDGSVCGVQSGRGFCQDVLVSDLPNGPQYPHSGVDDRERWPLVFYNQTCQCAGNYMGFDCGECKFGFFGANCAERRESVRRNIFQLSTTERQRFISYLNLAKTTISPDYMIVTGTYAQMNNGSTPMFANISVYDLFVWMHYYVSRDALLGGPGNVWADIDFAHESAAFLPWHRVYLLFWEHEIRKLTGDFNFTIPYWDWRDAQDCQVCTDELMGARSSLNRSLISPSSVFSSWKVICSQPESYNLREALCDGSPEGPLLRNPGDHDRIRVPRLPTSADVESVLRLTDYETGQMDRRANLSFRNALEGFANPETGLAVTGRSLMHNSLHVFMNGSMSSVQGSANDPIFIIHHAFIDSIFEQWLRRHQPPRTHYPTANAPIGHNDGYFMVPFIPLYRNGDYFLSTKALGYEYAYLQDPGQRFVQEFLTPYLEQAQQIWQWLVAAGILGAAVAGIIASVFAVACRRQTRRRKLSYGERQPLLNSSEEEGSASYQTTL

Danio rerio [1] = species: Danio rerio; assay: Toxicity in wild type zebrafish embryos assessed as blood circulation at 1000 ug/ml treated for 96 hrs post fertilization starting from 6 hrs post fertilization by inverted microscopic analysis relative to control; format: organism-based; details: in vivo
Danio rerio [2] = species: Danio rerio; assay: Toxicity in wild type zebrafish embryos assessed as normal embryo at 2500 ug/ml treated for 96 hrs post fertilization starting from 6 hrs post fertilization by inverted microscopic analysis relative to control; format: organism-based; details: in vivo
Danio rerio [3] = species: Danio rerio; assay: Toxicity in wild type zebrafish embryos assessed as heart beat at 100 ug/ml treated for 96 hrs post fertilization starting from 6 hrs post fertilization by inverted microscopic analysis relative to control; format: organism-based; details: in vivo
Danio rerio [4] = species: Danio rerio; assay: Toxicity in wild type zebrafish embryos assessed as blood circulation at 2500 ug/ml treated for 96 hrs post fertilization starting from 6 hrs post fertilization by inverted microscopic analysis relative to control; format: organism-based; details: in vivo
Danio rerio [5] = species: Danio rerio; assay: Toxicity in wild type zebrafish embryos assessed as head malformation at 500 ug/ml treated for 96 hrs post fertilization starting from 6 hrs post fertilization by inverted microscopic analysis relative to control; format: organism-based; details: in vivo
Danio rerio [6] = assay: Toxicity in wild type zebrafish embryos assessed as pericardial edema at 2500 ug/ml treated for 96 hrs post fertilization starting from 6 hrs post fertilization by inverted microscopic analysis relative to control; format: organism-based; details: in vivo
Danio rerio [7] = assay: Toxicity in wild type zebrafish embryos assessed as pericardial edema at 100 ug/ml treated for 96 hrs post fertilization starting from 6 hrs post fertilization by inverted microscopic analysis relative to control; format: organism-based; details: in vivo
Danio rerio [8] = assay: Toxicity in wild type zebrafish embryos assessed as yolk edema at 2500 ug/ml treated for 96 hrs post fertilization starting from 6 hrs post fertilization by inverted microscopic analysis relative to control; format: organism-based; details: in vivo
Neutrophil = assay: Cytotoxicity against mpx:GFP transgenic zebrafish 24 hrs post fertilization embryo neutrophils assessed as loss in neutrophil at 2 to 2.5 mg/ml; format: cell-based, Danio rerio
Danio rerio [9] = species: Danio rerio; assay: Toxicity in wild type zebrafish embryos assessed as heart beat at 1000 ug/ml treated for 96 hrs post fertilization starting from 6 hrs post fertilization by inverted microscopic analysis relative to control; format: organism-based; details: in vivo
Danio rerio [10] = species: Danio rerio; assay: Toxicity in wild type zebrafish embryos assessed as eyes at 100 ug/ml treated for 96 hrs post fertilization starting from 6 hrs post fertilization by inverted microscopic analysis relative to control; format: organism-based; details: in vivo
Danio rerio [11] = species: Danio rerio; assay: Toxicity in wild type zebrafish embryos assessed as eyes at 1000 ug/ml treated for 96 hrs post fertilization starting from 6 hrs post fertilization by inverted microscopic analysis relative to control; format: organism-based; details: in vivo
Danio rerio [12] = species: Danio rerio; assay: Anti-melanogenic activity in wild type zebrafish 24 hrs post fertilization embryos assessed as decrease in body pigmentation at >= 500 ug/ml after 48 hrs; format: functional, organism-based
Danio rerio [13] = species: Danio rerio; assay: Toxicity in wild type zebrafish embryos assessed as unhatched embryo at 1000 ug/ml treated for 96 hrs post fertilization starting from 6 hrs post fertilization by inverted microscopic analysis relative to control; format: organism-based; details: in vivo
Danio rerio [14] = species: Danio rerio; assay: Toxicity in wild type zebrafish embryos assessed as otoliths at 1000 ug/ml treated for 96 hrs post fertilization starting from 6 hrs post fertilization by inverted microscopic analysis relative to control; format: organism-based; details: in vivo
Danio rerio [15] = species: Danio rerio; assay: Toxicity in wild type zebrafish embryos assessed as notochord at 2500 ug/ml treated for 96 hrs post fertilization starting from 6 hrs post fertilization by inverted microscopic analysis relative to control; format: organism-based; details: in vivo
[16] = Toxicity in wild type zebrafish embryos assessed as dead embryo at 2000 ug/ml treated for 96 hrs post fertilization starting from 6 hrs post fertilization by inverted microscopic analysis relative to control; format: organism-based, Danio rerio; details: in vivo, read-out: Activity
Danio rerio [17] = species: Danio rerio; assay: Toxicity in wild type zebrafish embryos assessed as skeletal deformities at 2000 ug/ml treated for 96 hrs post fertilization starting from 6 hrs post fertilization by inverted microscopic analysis relative to control; format: organism-based; details: in vivo
Danio rerio [18] = species: Danio rerio; assay: Toxicity in wild type zebrafish embryos assessed as otoliths at 100 ug/ml treated for 96 hrs post fertilization starting from 6 hrs post fertilization by inverted microscopic analysis relative to control; format: organism-based; details: in vivo
Danio rerio [19] = assay: Toxicity in wild type zebrafish embryos assessed as pericardial edema at 1000 ug/ml treated for 96 hrs post fertilization starting from 6 hrs post fertilization by inverted microscopic analysis relative to control; format: organism-based; details: in vivo
Danio rerio [20] = species: Danio rerio; assay: Toxicity in wild type zebrafish embryos assessed as blood circulation at 500 ug/ml treated for 96 hrs post fertilization starting from 6 hrs post fertilization by inverted microscopic analysis relative to control; format: organism-based; details: in vivo
Danio rerio [21] = species: Danio rerio; assay: Toxicity in wild type zebrafish embryos assessed as head malformation at 2500 ug/ml treated for 96 hrs post fertilization starting from 6 hrs post fertilization by inverted microscopic analysis relative to control; format: organism-based; details: in vivo
Danio rerio [22] = species: Danio rerio; assay: Toxicity in wild type zebrafish embryos assessed as notochord at 1000 ug/ml treated for 96 hrs post fertilization starting from 6 hrs post fertilization by inverted microscopic analysis relative to control; format: organism-based; details: in vivo

O=c1cc(-c2ccccc2)c2ccc(O)cc2o1
melanin content % of control (Tyrosinase (Danio rerio)): 24%

O=c1cc(CO)occ1O [KOJIC ACID]
Activity (Danio rerio [1]): 0%
Activity (Danio rerio [2]): 0%
Activity (Danio rerio [3]): 0%
Activity (Danio rerio [4]): 10%
Activity (Danio rerio [5]): 0%
Activity (Danio rerio [6]): 100%
Activity (Danio rerio [7]): 35%
Activity (Danio rerio [8]): 5%
Activity (Neutrophil): Toxic
Activity (Danio rerio [9]): 83.33%
Activity (Danio rerio [10]): 0%
Activity (Danio rerio [11]): 0%
Activity (Danio rerio [12]): Active
Activity (Danio rerio [13]): 0%
Activity (Danio rerio [14]): 0%
Activity (Danio rerio [15]): 0%
mortality at 2000 ug/ml [16]: 0%
Activity (Danio rerio [17]): 78.33%
Activity (Danio rerio [18]): 0%
Activity (Danio rerio [19]): 98.33%
Activity (Danio rerio [20]): 0%
Activity (Danio rerio [21]): 98.33%
Activity (Danio rerio [22]): 0%
